Reference: patent US20080026417A1, “ASSAYS FOR TRICHOMONAL AND OTHER HYDROLASES” (priority 2002, published 2008)
Ends that are not written are not given here.

Legend:
trichomonal hydrolases [1] = test: Experiment 13: hydrolysis of peptide substrates by trichomonal hydrolases at low pH, no vaginal fluid; format: biochemical, Trichomonas vaginalis; set-up: key: −: No red color produced; +: Clearly visible red color produced; ++: Moderately intense red color produced; +++: Very intense red color produced; settings: without vaginal fluid; threonine buffer pH 2.4; 2 mM substrate solution; 10 min 25° C.; Fast Garnet
Description: (§1) Forty μL of each substrate was pipetted into duplicate wells of a microtiter plate. The plate was covered with tape, placed into a 25° C. incubator, and allowed to warm. A diluted enzyme mixture was prepared by mixing one part (v/v) freshly-thawed trichomonal hydrolase solution to nine parts 2 mM L-cysteine solution. Forty μL of this mixture was added to one well of each pair of duplicate wells. For negative controls, 40 μL of 2 mM L-cysteine was added to the second well in each pair of duplicate wells. The plate was returned to the incubator and incubated for ten minutes. Forty μL of SDS/acetate solution was added to each well, followed by 40 μL of Fast Garnet solution. The intensity of color that developed in each well after five minutes was visually scored using the color scale presented in Table 13.1.

trichomonal hydrolases [2] = test: Experiment 13: hydrolysis of peptide substrates by trichomonal hydrolases at low pH in vaginal fluid supernatant; format: biochemical, Trichomonas vaginalis; set-up: key: −: No red color produced; +: Clearly visible red color produced; ++: Moderately intense red color produced; +++: Very intense red color produced; settings: Fast Garnet
Description: as §1
Of the nine substrates hydrolyzed by trichomonal hydrolases to produce an intense pink color (scoring ++ or +++) in the absence of vaginal fluid supernatant, only four produced intense pink color when vaginal fluid supernatant was present.

trichomonal hydrolases [3] = test: Experiment 1: hydrolysis of substrates by trichomonal hydrolases at pH 2.8-9.2, with or without normal vaginal fluid supernatant (NVS), absorbance 540 nm; format: biochemical, Trichomonas vaginalis; settings: 540 nm
Description: Assays without normal vaginal fluid supernatant present: Two sets of six wells in a microtiter plate were prepared, with each well containing 80 μL of one of the six 200 mM buffers, 10 μL of water and 10 μL of diluted trichomonal hydrolases. Ten μL of ZRR-MNA was added to each well in the first set of wells, and 10 μl of VLK-MNA was added to each well in the second set of wells. After fifteen minutes, 100 μl of indicator solution was added to each well. Because a high pH can reduce the intensity of color produced by the indicator solution, 50 μl of 100 mM acetic acid buffer, pH 3.7, was added to each well except the pH 2.8 wells (water was substituted for the acetic acid in those wells). After another fifteen minutes, the absorbance of the solutions in the wells was measured on a microtiter plate reader set on 540 nm wavelength.
Assays with normal vaginal fluid supernatant (NVS) present: The procedure of the preceding paragraph was followed, except that 10 μL of diluted NVS was added to the wells in place of the 10 μL of water.

[4] = system: non-trichomonal hydrolases present in vaginal fluid; test: Experiment 8: polypeptide inhibition of hydrolases in whole vaginal fluid of uninfected women; format: biochemical, human; set-up: key: 0: Yellow; 1: Peach; 2: Orange; 3: Light to medium pink; 4: Dark pink or red; 5: Fuchsia; 6: Purple; settings: ZRR-MNA, 10 mM polypeptide in substrate solution
Description: (§2) The vaginal fluid was extracted from each swab by centrifugation, and then mixed to resuspend the particulate matter. For each donor, 2 μL of vaginal fluid was pipetted into each of ten microwells, then 2 μL of one of the ten substrate/buffer/polypeptide combinations was added to each well. Additionally, 2 μL of trichomonal hydrolases was mixed with 2 μL of each of the substrate/polypeptide combinations in set of ten wells. After fifteen minutes, 2 μL of indicator solution was added to each well.

trichomonal hydrolases [5] = test: Experiment 8: polypeptide inhibition of trichomonal hydrolases; format: biochemical, Trichomonas vaginalis; set-up: key: 0: Yellow; 1: Peach; 2: Orange; 3: Light to medium pink; 4: Dark pink or red; 5: Fuchsia; 6: Purple; settings: 10 mM polypeptide in substrate solution
Description: as §2

[6] = system: non-trichomonal hydrolases present in whole vaginal fluid; test: Experiment 9: dipeptide inhibition of hydrolases in whole vaginal fluid of uninfected women; format: biochemical, human; set-up: key: 0: Yellow; 1: Peach; 2: Orange; 3: Light to medium pink; 4: Dark pink or red; 5: Fuchsia; 6: Purple; settings: ZRR-MNA, 10 mM dipeptide in substrate solution
Description: (§3) For each specimen, the vaginal fluid was extracted from the swab by centrifugation, 2 μL of the vaginal fluid supernatant was removed from the microfuge tube, and the remainder of the fluid was mixed to resuspend the particulate matter. For each specimen, 2 μL of the thus reconstituted vaginal fluid was pipetted into each of four microwells, then 2 μL of one of the four substrate/dipeptide combinations was added to each well. The 2 μL of vaginal fluid supernatant from each specimen was mixed with 18 μL of trichomonal hydrolases, and 2 μL of this mixture was mixed with 2 μL of each of the substrate/dipeptide combinations in another set of four wells. After fifteen minutes, 2 μL of indicator solution was added to each well.

trichomonal hydrolases [7] = test: Experiment 9: dipeptide inhibition of trichomonal hydrolases mixed with vaginal fluid supernatant; format: biochemical, Trichomonas vaginalis; set-up: key: 0: Yellow; 1: Peach; 2: Orange; 3: Light to medium pink; 4: Dark pink or red; 5: Fuchsia; 6: Purple; settings: trichomonal hydrolase added, ZRR-MNA, 10 mM dipeptide in substrate solution
Description: as §3

[8] = pH 5, Donor A whole vaginal fluid
[9] = pH 5, Donor B whole vaginal fluid
[10] = pH 5, Donor C whole vaginal fluid
[11] = pH 5, Donor D whole vaginal fluid
[12] = pH 8, Donor A whole vaginal fluid
[13] = pH 8, Donor B whole vaginal fluid
[14] = pH 8, Donor C whole vaginal fluid
[15] = pH 8, Donor D whole vaginal fluid
[16] = Donor A vaginal fluid supernatant
[17] = Donor B vaginal fluid supernatant
[18] = Donor C vaginal fluid supernatant
[19] = Donor D vaginal fluid supernatant

COc1cc(NC(=O)[C@H](CCCNC(=N)N)NC(=O)[C@@H](NC(=O)[C@H](Cc2ccccc2)NC(=O)c2ccccc2)C(C)C)cc2ccccc12 [BZ-Phe-Val-Arg-MNA]
Color Score (trichomonal hydrolases [1]): ++
Color Score (trichomonal hydrolases [2]): +

COc1cc(NC(=O)[C@H](CCCN=C(N)N)NC(=O)[C@H](CCCN=C(N)N)NC(=O)[C@H](C)NC(=O)OCc2ccccc2)cc2ccccc12 [CBZ-Ala-Arg-Arg-MNA]
Color Score (trichomonal hydrolases [1]): ++
Color Score (trichomonal hydrolases [2]): +

COc1cc(NC(=O)[C@H](CCCNC(=N)N)NC(=O)[C@H](Cc2ccccc2)NC(=O)OCc2ccccc2)cc2ccccc12 [CBZ-Phe-Arg-MNA]
Color Score (trichomonal hydrolases [1]): ++
Color Score (trichomonal hydrolases [2]): +

COc1cc(NC(=O)C(CCCCN)NC(=O)C(CC(C)C)NC(=O)C(N)C(C)C)cc2ccccc12 [VLK-MNA, D-Val-Leu-Lys-MNA]
Color Score (trichomonal hydrolases [1]): ++
Color Score (trichomonal hydrolases [2]): +
Absorbance Readings (trichomonal hydrolases [3]; with vaginal fluid supernatant, Acetate pH 5.1): 0.065
Absorbance Readings (trichomonal hydrolases [3]; with vaginal fluid supernatant, Borate pH 9.2): 0.062
Absorbance Readings (trichomonal hydrolases [3]; with vaginal fluid supernatant, Gly-gly pH 2.8): 0.094
Absorbance Readings (trichomonal hydrolases [3]; with vaginal fluid supernatant, HEPES pH 7.5): 0.063
Absorbance Readings (trichomonal hydrolases [3]; with vaginal fluid supernatant, MOPS pH 7.0): 0.066
Absorbance Readings (trichomonal hydrolases [3]; with vaginal fluid supernatant, TRIS pH 8.0): 0.073
Absorbance Readings (trichomonal hydrolases [3]; without vaginal fluid supernatant, Acetate pH 5.1): 1.622
Absorbance Readings (trichomonal hydrolases [3]; without vaginal fluid supernatant, Borate pH 9.2): 1.459
Absorbance Readings (trichomonal hydrolases [3]; without vaginal fluid supernatant, Gly-gly pH 2.8): 0.691
Absorbance Readings (trichomonal hydrolases [3]; without vaginal fluid supernatant, HEPES pH 7.5): 1.217
Absorbance Readings (trichomonal hydrolases [3]; without vaginal fluid supernatant, MOPS pH 7.0): 1.087
Absorbance Readings (trichomonal hydrolases [3]; without vaginal fluid supernatant, TRIS pH 8.0): 1.219

COc1cc(NC(=O)[C@H](CCCN=C(N)N)NC(=O)[C@H](CC(C)C)NC(=O)OCc2ccccc2)cc2ccccc12 [ZLR, CBZ-Leu-Arg-MNA]
Color Score (trichomonal hydrolases [1]): +++
Color Score (trichomonal hydrolases [2]): +++

Arg-Lys-Asn-Val-Tyr (RKNVY; printed: Arg-Lys-Asn-Val-Tyr)
Hydrolase activity color score with polypeptide [4, 8]: 0.5
Hydrolase activity color score with polypeptide [4, 9]: 0
Hydrolase activity color score with polypeptide [4, 10]: 0
Hydrolase activity color score with polypeptide [4, 11]: 0
Hydrolase activity color score with polypeptide [4, 12]: 0.5
Hydrolase activity color score with polypeptide [4, 13]: 0.5
Hydrolase activity color score with polypeptide [4, 14]: 1
Hydrolase activity color score with polypeptide [4, 15]: 1
Hydrolase activity color score with polypeptide (trichomonal hydrolases [5]; pH 5, ZRR-MNA): 3
Hydrolase activity color score with polypeptide (trichomonal hydrolases [5]; pH 8, ZRR-MNA): 3

KPQLWP
Hydrolase activity color score with polypeptide [4, 8]: 0
Hydrolase activity color score with polypeptide [4, 9]: 0
Hydrolase activity color score with polypeptide [4, 10]: 0
Hydrolase activity color score with polypeptide [4, 11]: 0
Hydrolase activity color score with polypeptide [4, 12]: 0.5
Hydrolase activity color score with polypeptide [4, 13]: 0.5
Hydrolase activity color score with polypeptide [4, 14]: 0
Hydrolase activity color score with polypeptide [4, 15]: 0
Hydrolase activity color score with polypeptide (trichomonal hydrolases [5]; pH 5, ZRR-MNA): 3
Hydrolase activity color score with polypeptide (trichomonal hydrolases [5]; pH 8, ZRR-MNA): 3

KRQHPG
Hydrolase activity color score with polypeptide [4, 8]: 2
Hydrolase activity color score with polypeptide [4, 9]: 2
Hydrolase activity color score with polypeptide [4, 10]: 0
Hydrolase activity color score with polypeptide [4, 11]: 2
Hydrolase activity color score with polypeptide [4, 12]: 2.5
Hydrolase activity color score with polypeptide [4, 13]: 2
Hydrolase activity color score with polypeptide [4, 14]: 0.5
Hydrolase activity color score with polypeptide [4, 15]: 2
Hydrolase activity color score with polypeptide (trichomonal hydrolases [5]; pH 5, ZRR-MNA): 3
Hydrolase activity color score with polypeptide (trichomonal hydrolases [5]; pH 8, ZRR-MNA): 3

Lysine-lysine
Hydrolase activity color score with dipeptide ([6]; Donor A whole vaginal fluid): 1
Hydrolase activity color score with dipeptide ([6]; Donor B whole vaginal fluid): 0
Hydrolase activity color score with dipeptide ([6]; Donor C whole vaginal fluid): 0
Hydrolase activity color score with dipeptide ([6]; Donor D whole vaginal fluid): 2.5
Hydrolase activity color score with dipeptide (trichomonal hydrolases [7]; [16]): 1
Hydrolase activity color score with dipeptide (trichomonal hydrolases [7]; [17]): 2
Hydrolase activity color score with dipeptide (trichomonal hydrolases [7]; [18]): 1
Hydrolase activity color score with dipeptide (trichomonal hydrolases [7]; [19]): 2

Lysine-proline
Hydrolase activity color score with dipeptide ([6]; Donor A whole vaginal fluid): 0
Hydrolase activity color score with dipeptide ([6]; Donor B whole vaginal fluid): 0
Hydrolase activity color score with dipeptide ([6]; Donor C whole vaginal fluid): 0
Hydrolase activity color score with dipeptide ([6]; Donor D whole vaginal fluid): 0
Hydrolase activity color score with dipeptide (trichomonal hydrolases [7]; [16]): 1
Hydrolase activity color score with dipeptide (trichomonal hydrolases [7]; [17]): 1
Hydrolase activity color score with dipeptide (trichomonal hydrolases [7]; [18]): 0.5
Hydrolase activity color score with dipeptide (trichomonal hydrolases [7]; [19]): 2

Lysine-valine
Hydrolase activity color score with dipeptide ([6]; Donor A whole vaginal fluid): 1
Hydrolase activity color score with dipeptide ([6]; Donor B whole vaginal fluid): 0
Hydrolase activity color score with dipeptide ([6]; Donor C whole vaginal fluid): 0
Hydrolase activity color score with dipeptide ([6]; Donor D whole vaginal fluid): 1.5
Hydrolase activity color score with dipeptide (trichomonal hydrolases [7]; [16]): 1
Hydrolase activity color score with dipeptide (trichomonal hydrolases [7]; [17]): 2
Hydrolase activity color score with dipeptide (trichomonal hydrolases [7]; [18]): 1
Hydrolase activity color score with dipeptide (trichomonal hydrolases [7]; [19]): 2

RPKPQFFGLM [Arg-Pro-Lys-Pro-Gln-Phe-Phe-Gly-Leu-Met]
Hydrolase activity color score with polypeptide [4, 8]: 0.5
Hydrolase activity color score with polypeptide [4, 9]: 1
Hydrolase activity color score with polypeptide [4, 10]: 0
Hydrolase activity color score with polypeptide [4, 11]: 0.5
Hydrolase activity color score with polypeptide [4, 12]: 0.5
Hydrolase activity color score with polypeptide [4, 13]: 0.5
Hydrolase activity color score with polypeptide [4, 14]: 0
Hydrolase activity color score with polypeptide [4, 15]: 0
Hydrolase activity color score with polypeptide (trichomonal hydrolases [5]; pH 5, ZRR-MNA): 1
Hydrolase activity color score with polypeptide (trichomonal hydrolases [5]; pH 8, ZRR-MNA): 0.5
